Source: US8759099B2, “Pancreatic islet separation method, and protective solution for protecting pancreatic islet tissue” (Otsuka Pharmaceutical Factory, Inc., priority 2010, dated 2014)

System: mouse islets
Experiment: LDH leakage cytotoxicity of mouse islets cultured in the presence of neutrophil elastase
Format: cell-based
Settings: FIG. 3
Description: The concentration of the neutrophil elastase inhibitor used in the isolation method of the present invention was examined as follows using the extracellular leakage of LDH (lactate dehydrogenase) (indicator for cytotoxicity) as an indicator.
First, mouse islets were cultured in the presence of neutrophil elastase at a concentration of 0.31 to 10 μg/mL and the supernatant was collected after a lapse of a certain time. Subsequently, the remaining mouse islets were homogenized and the islet suspension was collected. LDH contained in the collected supernatant and the islet suspension was measured by using a LDH assay kit to measure absorbance at 562 nm. The optimal concentration of the neutrophil elastase inhibitor was examined by adding 2 to 200 μM of the neutrophil elastase inhibitor, sivelestat, in culturing mouse islets in the presence of various concentrations of neutrophil elastase, and similarly measuring the amount of LDH. The cytotoxicity was expressed as the percentage (%) of the amount of LDH contained in the supernatant in the sum of the amount of LDH contained in the supernatant and the amount of LDH contained in the islet suspension.

CC(C)(C)C(=O)Oc1ccc(S(=O)(=O)Nc2ccccc2C(=O)NCC(=O)O)cc1 [sivelestat]
optimal concentration of the neutrophil elastase inhibitor (from suppression of LDH leakage among 2, 20, 200 μM): 20 µM
damage of islet cells (cytotoxicity, LDH in supernatant as % of total LDH) (mouse islets with neutrophil elastase 0.31 to 10 μg/mL, 2, 20 or 200 μM sivelestat compared, result at 20 μM): most suppressed
